Tests used:
Test in all cases: NCI-60 antiproliferative screen (SRB)
MDA-MB-468 = type: cell-based, human; conditions: Homo sapiens; 10 µM single dose, 48 h; MDA-MB-468 (Breast); read-out: Growth inhibition (%)
BT-549 = type: cell-based, human; conditions: Homo sapiens; 10 µM single dose, 48 h; BT-549 (Breast); read-out: Growth inhibition (%)
KM12 = type: cell-based, human; conditions: Homo sapiens; 10 µM single dose, 48 h; KM12 (Colon); read-out: Growth inhibition (%)
OVCAR-3 = type: cell-based, human; conditions: Homo sapiens; 10 µM single dose, 48 h; OVCAR-3 (Ovarian); read-out: Growth inhibition (%)
HCT-15 = type: cell-based, human; conditions: Homo sapiens; 10 µM single dose, 48 h; HCT-15 (Colon); read-out: Growth inhibition (%)
UACC-257 = type: cell-based, human; conditions: Homo sapiens; 10 µM single dose, 48 h; UACC-257 (Melanoma); read-out: Growth inhibition (%)
HL-60(TB) = type: cell-based, human; conditions: Homo sapiens; 10 µM single dose, 48 h; HL-60(TB) (Leukemia); read-out: Growth inhibition (%)
MCF7 = type: cell-based, human; conditions: Homo sapiens; 10 µM single dose, 48 h; MCF7 (Breast); read-out: Growth inhibition (%)
MALME-3M = type: cell-based, human; conditions: Homo sapiens; 10 µM single dose, 48 h; MALME-3M (Melanoma); read-out: Growth inhibition (%)
CAKI-1 = type: cell-based, human; conditions: Homo sapiens; 10 µM single dose, 48 h; CAKI-1 (Renal); read-out: Growth inhibition (%)
NCI-H460 = type: cell-based, human; conditions: Homo sapiens; 10 µM single dose, 48 h; NCI-H460 (NSCLC); read-out: Growth inhibition (%)
RPMI-8226 = type: cell-based, human; conditions: Homo sapiens; 10 µM single dose, 48 h; RPMI-8226 (Leukemia); read-out: Growth inhibition (%)
NCI-H522 = type: cell-based, human; conditions: Homo sapiens; 10 µM single dose, 48 h; NCI-H522 (NSCLC); read-out: Growth inhibition (%)
A549/ATCC = type: cell-based, human; conditions: Homo sapiens; 10 µM single dose, 48 h; A549/ATCC (NSCLC); read-out: Growth inhibition (%)
UO-31 = type: cell-based, human; conditions: Homo sapiens; 10 µM single dose, 48 h; UO-31 (Renal); read-out: Growth inhibition (%)
SR = conditions: Homo sapiens, 48 h, read-out: Growth inhibition (%)
LOX IMVI = type: cell-based, human; conditions: Homo sapiens; 10 µM single dose, 48 h; LOX IMVI (Melanoma); read-out: Growth inhibition (%)
OVCAR-5 = type: cell-based, human; conditions: Homo sapiens; 10 µM single dose, 48 h; OVCAR-5 (Ovarian); read-out: Growth inhibition (%)
OVCAR-8 = type: cell-based, human; conditions: Homo sapiens; 10 µM single dose, 48 h; OVCAR-8 (Ovarian); read-out: Growth inhibition (%)
CCRF-CEM = type: cell-based, human; conditions: Homo sapiens; 10 µM single dose, 48 h; CCRF-CEM (Leukemia); read-out: Growth inhibition (%)
EKVX = type: cell-based, human; conditions: Homo sapiens; 10 µM single dose, 48 h; EKVX (NSCLC); read-out: Growth inhibition (%)
OVCAR-4 = conditions: Homo sapiens, OVCAR-4, 48 h, read-out: Growth inhibition (%)
Method: Anticancer activity was tested against 60 cancer cell lines (NCI-60) after 48h treatments with a single dosage of 10 μM of compounds by using sulforhodamine B assay [39] on the traditional 96-well platform. […] The human cancer cell lines of the NCI-60 panel are grown in RPMI 1640 medium supplemented with 5% FBS (fetal bovine serum) and 2 mM L-glutamine. […] For further analysis of promising compounds, five dose screens were performed against the NCI-60 panel. Drug treatments are performed in 5 doses using 10-fold or ½ log dose dilutions.

MOLT-4 = type: cell-based; conditions: Homo sapiens; 10 µM single dose, 48 h; MOLT-4 (Leukemia); read-out: Growth inhibition (%)
A498 = type: cell-based, human; conditions: Homo sapiens; 10 µM single dose, 48 h; A498 (Renal); read-out: Growth inhibition (%)
NCI-H226 = type: cell-based, human; conditions: Homo sapiens; 10 µM single dose, 48 h; NCI-H226 (NSCLC); read-out: Growth inhibition (%)
SNB-19 = type: cell-based, human; conditions: Homo sapiens; 10 µM single dose, 48 h; SNB-19 (CNS); read-out: Growth inhibition (%)
DU-145 = type: cell-based, human; conditions: Homo sapiens; 10 µM single dose, 48 h; DU-145 (Prostate); read-out: Growth inhibition (%)
SK-OV-3 = type: cell-based, human; conditions: Homo sapiens; 10 µM single dose, 48 h; SK-OV-3 (Ovarian); read-out: Growth inhibition (%)
SF-268 = type: cell-based, human; conditions: Homo sapiens; 10 µM single dose, 48 h; SF-268 (CNS); read-out: Growth inhibition (%)
ACHN = type: cell-based, human; conditions: Homo sapiens; 10 µM single dose, 48 h; ACHN (Renal); read-out: Growth inhibition (%)

SMILES | inhibition at 10 µM (MDA-MB-468) [%] | inhibition at 10 µM (BT-549) [%] | inhibition at 10 µM (KM12) [%] | inhibition at 10 µM (OVCAR-3) [%] | inhibition at 10 µM (HCT-15) [%] | inhibition at 10 µM (UACC-257) [%] | inhibition at 10 µM (HL-60(TB)) [%] | inhibition at 10 µM (MCF7) [%] | inhibition at 10 µM (MALME-3M) [%] | inhibition at 10 µM (CAKI-1) [%] | inhibition at 10 µM (NCI-H460) [%] | inhibition at 10 µM (RPMI-8226) [%] | inhibition at 10 µM (NCI-H522) [%] | inhibition at 10 µM (A549/ATCC) [%] | inhibition at 10 µM (UO-31) [%] | inhibition at 10 µM (SR) [%] | inhibition at 10 µM (OVCAR-5) [%] | inhibition at 10 µM (OVCAR-8) [%] | inhibition at 10 µM (CCRF-CEM) [%] | inhibition at 10 µM (EKVX) [%] | further results
O=C1Nc2ccc(Cl)cc2C1=Cc1ccc(OCc2ccccn2)cc1 (mixture of isomers) [Compound 5g, (E/Z)-5-Chloro-3-[4-(pyridin-2-ylmethoxy)benzylidene] indolin-2-one] | 49.6 | 21.2 | 21.2 | 42.7 | 64.3 | -18.2 | 15 | 71.1 | 61.5 | 38.4 | 84 | 26.1 | 34 | 35.6 | 40.5 | 45.1 | 11.8 | 54.1 | 16.8 | 34.3 | inhibition at 10 µM (LOX IMVI): 43.5%; inhibition at 10 µM (OVCAR-4): 102%; inhibition at 10 µM (MOLT-4): 53.1%; inhibition at 10 µM (A498): 54.9%; inhibition at 10 µM (NCI-H226): 98.7%; inhibition at 10 µM (SNB-19): 49.3%; inhibition at 10 µM (DU-145): 12.2%; inhibition at 10 µM (SK-OV-3): 10.8%; inhibition at 10 µM (SF-268): 20.7%; inhibition at 10 µM (ACHN): 43%
O=C1Nc2cc(Cl)ccc2C1=Cc1ccc(OCc2ccccn2)cc1 (mixture of isomers) [Compound 5h, (E/Z)-6-Chloro-3-[4-(pyridin-2-ylmethoxy)benzylidene]indolin-2-one] | 60.8 | 33.8 | 21.6 | 6.16 | 45.5 | -2.1 | 5.33 | 63.7 | 18 | 28.8 | 56.7 | 32.4 | 31.6 | 62.5 | 38 | 42.8 | 15.6 | 13.6 | 53.7 | 49.4 | inhibition at 10 µM (OVCAR-4): 75.8%; inhibition at 10 µM (MOLT-4): 61.5%; inhibition at 10 µM (A498): -11.5%; inhibition at 10 µM (NCI-H226): 48.6%; inhibition at 10 µM (SNB-19): 20%; inhibition at 10 µM (DU-145): 39.6%; inhibition at 10 µM (SK-OV-3): 4.39%; inhibition at 10 µM (SF-268): 23.2%; inhibition at 10 µM (ACHN): 9.61%
